Patent USRE42890E1, “Furazanobenzimidazoles” (Basilea Pharmaceutica AG, priority 2003, dated 2011)

How the values were obtained:
[1] = test system: Jurkat; experiment: MTS proliferation assay, Jurkat; format: cell-based, human; conditions: 72 h incubation, read-out: MTS proliferation assay IC 50 Jurkat
Method in brief: (§1)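 Seed cells (1.5*10^3-10^4/well) 24 h ahead; add compound, final 10/3/1/0.3 μM; incubate 72 h, 37 °C, 7.5% CO2; MTS 3 h; read A492.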

[2] = test system: HT1080; experiment: MTS proliferation assay, HT1080; format: cell-based, human; conditions: HT1080, 72 h incubation; read-out: MTS proliferation assay IC 50 HT1080
Method in brief: as §1

[3] = test system: adherent cells or suspension cells; experiment: Hoechst 33342 nuclear staining (fraction of apoptotic nuclei); format: cell-based; parameters: key: 0 relating to no activity; 1 relating to weak activity comprising less than 70% of the cells; score 2 relating to strong activity comprising more than 70% of the cells
[4] = test system: MRC5; experiment: MTS proliferation assay, MRC5; format: cell-based; conditions: MRC5, 72 h incubation; read-out: MTS proliferation assay IC 50 MRC5
Method in brief: (§2)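 RPMI-1640 + 5% or 10% FCS; seeded 24 h pre-dose; cpd final 10/3/1/0.3 μM, max 5% DMSO in added volume; 72 h, 37° C, 7.5% CO2; MTS 3 h; A492.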

[5] = test system: HeLa; experiment: MTS proliferation assay, HeLa; format: cell-based, human; conditions: 72 h incubation, read-out: MTS proliferation assay IC 50 HeLa
Method in brief: as §1

[6] = test system: Jily; experiment: MTS proliferation assay, Jily; format: cell-based; conditions: 72 h incubation, read-out: MTS proliferation assay IC 50 Jily
Method in brief: as §2

IC50 [1]	IC50 [2]	IC50 [5]	Structure (SMILES)	Hoechst 33342 nuclear staining score ([3]; HeLa, conc 0.01 μm)	Hoechst 33342 nuclear staining score ([3]; HeLa, conc 0.1 μm)	Hoechst 33342 nuclear staining score ([3]; HeLa, conc 1 μm)	Hoechst 33342 nuclear staining score ([3]; Jily, conc 0.01 μm)	Hoechst 33342 nuclear staining score ([3]; Jily, conc 0.1 μm)	Hoechst 33342 nuclear staining score ([3]; Jily, conc 1 μm)	Hoechst 33342 nuclear staining score ([3]; Jurkat, conc 0.01 μm)	Hoechst 33342 nuclear staining score ([3]; Jurkat, conc 0.1 μm)	Hoechst 33342 nuclear staining score ([3]; Jurkat, conc 1 μm)	Hoechst 33342 nuclear staining score ([3]; MRC5, conc 0.01 μm)	Hoechst 33342 nuclear staining score ([3]; MRC5, conc 0.1 μm)	Hoechst 33342 nuclear staining score ([3]; MRC5, conc 1 μm)	Hoechst 33342 nuclear staining score ([3]; PBLs, conc 0.01 μm)	Hoechst 33342 nuclear staining score ([3]; PBLs, conc 0.1 μm)	Hoechst 33342 nuclear staining score ([3]; PBLs, conc 1 μm)	IC50 [4]	IC50 [6]	other results
> 1 µM	> 1 µM	> 1 µM	Nc1nonc1-c1nc2ccccc2n1CC(=O)/C=C/c1ccc(Cl)cc1 [Example 118]	0	0	0	0	0	1 (1 relating to weak activity comprising less than 70% of the cells)	0	0	0	0	0	0	0	0	0	> 1 µM	> 1 µM	Hoechst 33342 nuclear staining score ([3]; H460, conc 0.01 μm): 0; Hoechst 33342 nuclear staining score ([3]; H460, conc 0.1 μm): 0; Hoechst 33342 nuclear staining score ([3]; H460, conc 1 μm): 0
0.1 to 1 µM	0.1 to 1 µM	0.1 to 1 µM	Nc1nonc1-c1nc2ccccc2n1CC(=O)c1ccc(C(F)(F)F)cc1 [Example 43]	0	0	1 (1 relating to weak activity comprising less than 70% of the cells)	0	0	1 (1 relating to weak activity comprising less than 70% of the cells)	0	0	2 (score 2 relating to strong activity comprising more than 70% of the cells)	0	0	1 (1 relating to weak activity comprising less than 70% of the cells)	0	0	0	0.1 to 1 µM	0.1 to 1 µM	–
> 1 µM	> 1 µM	> 1 µM	Cc1ccc(/C=C/C(=O)Cn2c(-c3nonc3N)nc3ccccc32)cc1 [Example 119]	0	0	0	0	0	0	0	0	0	0	0	0	0	0	0	> 1 µM	> 1 µM	Hoechst 33342 nuclear staining score ([3]; H460, conc 0.01 μm): 0; Hoechst 33342 nuclear staining score ([3]; H460, conc 0.1 μm): 0; Hoechst 33342 nuclear staining score ([3]; H460, conc 1 μm): 0
0.1 to 1 µM	0.1 to 1 µM	0.1 to 1 µM	COCCOc1ccc(C(=O)Cn2c(-c3nonc3N)nc3ccccc32)cc1 [Example 77]	0	0	2 (score 2 relating to strong activity comprising more than 70% of the cells)	0	0	2 (score 2 relating to strong activity comprising more than 70% of the cells)	0	0	2 (score 2 relating to strong activity comprising more than 70% of the cells)	0	0	1 (1 relating to weak activity comprising less than 70% of the cells)	0	0	0	0.1 to 1 µM	0.1 to 1 µM	Hoechst 33342 nuclear staining score ([3]; H460, conc 0.01 μm): 0; Hoechst 33342 nuclear staining score ([3]; H460, conc 0.1 μm): 0; Hoechst 33342 nuclear staining score ([3]; H460, conc 1 μm): 2 (score 2 relating to strong activity comprising more than 70% of the cells)
